Article PMC11412489, “Coumarin derivatives as new anti-biofilm agents against Staphylococcus aureus” (PLOS ONE, 2024)
Where two headings read alike, the source gives them in different places.

Legend:
Type in all cases: cell-based, Staphylococcus aureus
S. aureus = assay: Antibacterial activity (bacterial growth inhibition); conditions: at 100 μg/mL; for inhibition at 100 µg/mL: Staphylococcus aureus, read-out: Antibacterial Activity (% Inhibition ± SEM)
[1] = tested on: biofilm of S. aureus ATCC 6538; assay: 96-well plate crystal violet assay for biofilm inhibition; conditions: for inhibition at 3.125 µg/mL / inhibition at 6.25 µg/mL / inhibition at 12.5 µg/mL / inhibition at 25 µg/mL / inhibition at 50 µg/mL / inhibition at 100 µg/mL: Staphylococcus aureus, ATCC6538
Protocol: The quantitative determination of biofilm inhibition was carried out by the crystal violet assay on a sterile 96-well plate with slight modifications. The glycerol stock of S. aureus was revived overnight at 37°C at 80 rpm. The overnight culture was then diluted 100 folds in fresh BHI broth, supplemented with 0.25% glucose. The cell density was adjusted to 1×10^7 and 195μL of the cell suspension was added in 96-well plate. […] Following that, the plate was washed with sterile distilled water in order to decant the non-adherent cells, and media. The plate was then dried at 60°C for 1 hour, and 200 μL of 0.1% (w/v) crystal violet was added to stain biofilm for 20 minutes. The plate was washed again, air dried, and dispensed 30% (v/v) acetic acid in each well to dissolve the biofilm. The inhibition of biofilm formation was analyzed by measuring the absorbance at 595 nm using the microplate reader (Multiskan Sky, Thermo Scientific, USA). The percent inhibition of biofilm formation was calculated via the following formula: 100−ƛTreated−ƛBlank/ƛControl−ƛBlank×100 Whereƛ=absorbance

S. aureus biofilm = assay: Atomic force microscopy analysis of biofilm disruption; conditions: compared to control S. aureus cells, 24 hours
Protocol: The size and structure of disrupted biofilm was analyzed. Briefly, a pure single colony of S. aureus was inoculated in BHI broth and grown for 18–24 hours at 37°C. Following incubation, the cells were diluted in BHI broth, and density was adjusted to 1×10^7 before loading on a sterile silicon chip placed in 24-well plate, then silicon chips were treated with active compounds. The plate was then sealed, and placed in an incubator for 24 hours at 37°C. After incubation, the treated silicon chips were washed with autoclaved distilled water thrice, air dried, and the samples were analyzed by atomic force microscope (Agilent Technologies, USA).

[2] = tested on: biofilm cells of the S. aureus strain (ATCC 6538); assay: Biofilm analysis by fluorescence microscopy (SYTO-9/PI); conditions: SYTO-9/PI staining, S. aureus ATCC 6538, 24 hours
Protocol: Briefly, 1×10^7 cells were loaded in 96-well plate, and treated with active compounds. Plate was sealed, and incubated for 24 hours at 37°C. Following incubation, plate was washed with sterile distilled water, and cells were stained with […] SYTO-9 and 5 μM PI, for 30 minutes in dark at room temperature. After incubation, the wells were washed again, and air dried. Images were taken, and then visualized by Nikon Eclipse TE2000, USA [23]. Propidium Iodide (PI) staining indicates membrane integrity, as it can only pass through compromised membranes of non-viable cells, giving red fluorescence. On the contrary, Syto-9 can pass through all cells despite of their membrane integrity, and binds to DNA/RNA by emitting green fluorescence.

[3] = S. aureus ATCC 6538, replicate 1, read-out: % Inhibition 1
[4] = S. aureus ATCC 6538, replicate 2, read-out: % Inhibition 2
[5] = S. aureus ATCC 6538, replicate 3, read-out: % Inhibition 3
[6] = S. aureus ATCC 6538, read-out: Mean % Inhibition
[7] = 100 µg/mL, S. aureus ATCC 6538, replicate 1, read-out: % Inhibition 1
[8] = 100 µg/mL, S. aureus ATCC 6538, replicate 2, read-out: % Inhibition 2
[9] = 100 µg/mL, S. aureus ATCC 6538, replicate 3, read-out: % Inhibition 3
[10] = 100 µg/mL, S. aureus ATCC 6538, read-out: Mean % Inhibition
[11] = at 100 μg/mL, biofilm of S. aureus, 24 hours, read-out: Antibiofilm Activity (% Inhibition ± SEM)
[12] = at 100 μg/mL, biofilm of S. aureus, 24 hours

Compound | inhibition at 100 µg/mL (S. aureus) | Antibacterial Activity (% Inhibition ± SEM) (S. aureus) | inhibition at 3.125 µg/mL [1, 3] | inhibition at 3.125 µg/mL [1, 4] | inhibition at 3.125 µg/mL [1, 5] | inhibition at 3.125 µg/mL [1, 6] | inhibition at 6.25 µg/mL [1, 3] | inhibition at 6.25 µg/mL [1, 4] | inhibition at 6.25 µg/mL [1, 5] | inhibition at 6.25 µg/mL [1, 6] | inhibition at 12.5 µg/mL [1, 3] | inhibition at 12.5 µg/mL [1, 4] | inhibition at 12.5 µg/mL [1, 5] | inhibition at 12.5 µg/mL [1, 6] | inhibition at 25 µg/mL [1, 3] | inhibition at 25 µg/mL [1, 4] | inhibition at 25 µg/mL [1, 5] | inhibition at 25 µg/mL [1, 6] | inhibition at 50 µg/mL [1, 3] | inhibition at 50 µg/mL [1, 4] | other results
O=c1oc2ccccc2cc1-c1csc(N/N=C/c2cc(Cl)cc(Br)c2)n1 [Compound 17, (E)-3-(2-(2-(3-Bromo-5-chlorobenzylidene)hydrazinyl)thiazol-4-yl)-2H-chromen-2-one] | 20 ± 4.64% | low antibacterial effect | 1.64% | 1.36% | 1.84% | 1.61% | 3.64% | 3.52% | 3.97% | 3.71% | 0.03% | 0.03% | 0.01% | 0.0233% | 15.9% | 15.1% | 16.9% | 15.9% | 55.1% | 53% | inhibition at 50 µg/mL [1, 5]: 57%; inhibition at 50 µg/mL [1, 6]: 55%; inhibition at 100 µg/mL [1, 7]: 77.9%; inhibition at 100 µg/mL [1, 8]: 77.6%; inhibition at 100 µg/mL [1, 9]: 82.3%; inhibition at 100 µg/mL [1, 10]: 79.3%; inhibition at 100 µg/mL [1, 11]: 69 ± 1.75%; Antibiofilm Activity (% Inhibition ± SEM) [1, 12]: high potential to inhibit the biofilms; Biofilm disruption seen by AFM (S. aureus biofilm): Disrupted biofilm surfaces; Biofilm disruption seen by fluorescence microscopy [2]: Disruption on the surface of biofilm
Cc1ccc2oc(=O)c(/C=N/Nc3nc(-c4ccc([N+](=O)[O-])cc4)cs3)c(Cl)c2c1 [Compound 4, (E)-4-Chloro-6-methyl-3-((2-(4-(4-nitrophenyl)thiazol-2-yl)hydrazono)methyl)-2H-chromen-2-one] | 21 ± 4.51% | low antibacterial effect | 2.92% | 1.79% | 3.04% | 2.58% | 7.04% | 8.05% | 9.02% | 8.04% | 6.69% | 5.79% | 5.68% | 6.05% | 29.1% | 30.1% | 28.1% | 29.1% | 66% | 67% | inhibition at 50 µg/mL [1, 5]: 66.1%; inhibition at 50 µg/mL [1, 6]: 66.4%; inhibition at 100 µg/mL [1, 7]: 86.8%; inhibition at 100 µg/mL [1, 8]: 84.3%; inhibition at 100 µg/mL [1, 9]: 86.6%; inhibition at 100 µg/mL [1, 10]: 85.9%; inhibition at 100 µg/mL [1, 11]: 90 ± 9.3%; Antibiofilm Activity (% Inhibition ± SEM) [1, 12]: high potential to inhibit the biofilms; Biofilm disruption seen by AFM (S. aureus biofilm): disrupt and degrade biofilm to varying degrees; Biofilm disruption seen by fluorescence microscopy [2]: mild to extensive biofilm disruption and degradation
Cc1ccc2oc(=O)c(/C=N/Nc3nc(-c4cccc([N+](=O)[O-])c4)cs3)c(Cl)c2c1 [Compound 2, (E)-4-Chloro-6-methyl-3-((2-(4-(3-nitrophenyl)thiazol-2-yl)hydrazono)methyl)-2H-chromen-2-one] | 15 ± 4.53% | low antibacterial effect | 4.05% | 3.79% | 4.17% | 4% | 3.29% | 3.99% | 3.49% | 3.59% | 1.73% | 0.99% | 2.54% | 1.75% | 1.79% | 1.44% | 1.99% | 1.74% | 27% | 29.2% | inhibition at 50 µg/mL [1, 5]: 28.5%; inhibition at 50 µg/mL [1, 6]: 28.3%; inhibition at 100 µg/mL [1, 7]: 95%; inhibition at 100 µg/mL [1, 8]: 93.9%; inhibition at 100 µg/mL [1, 9]: 93.6%; inhibition at 100 µg/mL [1, 10]: 94.2%; inhibition at 100 µg/mL [1, 11]: 90 ± 3.24%; Antibiofilm Activity (% Inhibition ± SEM) [1, 12]: high potential to inhibit the biofilms; Biofilm disruption seen by AFM (S. aureus biofilm): disrupt and degrade biofilm to varying degrees; Biofilm disruption seen by fluorescence microscopy [2]: Disruption on the surface of biofilm
